Laboratory results reported in ChEMBL document CHEMBL5390198, “Scaffold hopping of N-benzyl-3,4,5-trimethoxyaniline: 5,6,7-Trimethoxyflavan derivatives as novel potential anticancer agents modulating hippo signaling pathway” (2023).
The source made the active and inactive calls. The rule behind the calls is not given here.

Columns and labels:
[1] = test system: COLO 205; test: Growth inhibition of human COLO 205 cells measured after 24 to 72 hrs by SRB method; assay type: functional; conditions: time 24-72 hrs
[2] = test system: KM12; test: Growth inhibition of human KM12 cells measured after 24 to 72 hrs by SRB method; assay type: functional; conditions: time 24-72 hrs
[3] = test system: A549; test: Induction of apoptosis in human A549 cells assessed as decrease in caspase-3 expression measured after 48 hrs by Western blot analysis; assay type: functional, cell-based; conditions: dose <= 4.0 µM
[4] = test system: A549; test: Induction of apoptosis in human A549 cells assessed as decrease in PARP expression measured after 48 hrs by Western blot analysis; assay type: functional, cell-based; conditions: dose <= 4.0 µM
[5] = test system: A549; test: Induction of apoptosis in human A549 cells assessed as increase necrotic cell death at 1 to 4 uM measured after 48 hrs by annexin V-FITC/PI staining based flow cytometry analysis; assay type: functional; conditions: dose 1-4 µM
[6] = test system: A549; test: Induction of apoptosis in human A549 cells assessed as increase in apoptotic cells measured after 48 hrs by annexin V-FITC/PI staining based flow cytometry analysis; assay type: functional, cell-based; conditions: dose 1-4 µM
[7] = test system: A549; test: Induction of apoptosis in human A549 cells assessed as increase in cleaved PARP expression measured after 48 hrs by Western blot analysis; assay type: functional, cell-based; conditions: dose <= 4.0 µM
[8] = test system: A549; test: cells; assay type: functional; conditions: Homo sapiens, time 24-72 hrs
Description: Antiproliferative activity against human A549 cells assessed as inhibition of cell growth at 10 uM measured after 24 to 72 hrs by SRB method relative to control

[9] = test system: EKVX; test: cells; assay type: functional; conditions: Homo sapiens, time 24-72 hrs
Description: Antiproliferative activity against human EKVX cells assessed as inhibition of cell growth at 10 uM measured after 24 to 72 hrs by SRB method relative to control

[10] = test system: HOP-62; test: Antiproliferative activity against human HOP-62 cells assessed as inhibition of cell growth at 10 uM measured after 24 to 72 hrs by SRB method relative to control; assay type: functional; conditions: time 24-72 hrs
[11] = test system: HOP-92; test: cells; assay type: functional; conditions: Homo sapiens, time 24-72 hrs
Description: Antiproliferative activity against human HOP-92 cells assessed as inhibition of cell growth at 10 uM measured after 24 to 72 hrs by SRB method relative to control

[12] = test system: NCI-H226; test: cells; assay type: functional; conditions: Homo sapiens, time 24-72 hrs
Description: Antiproliferative activity against human NCI-H226 cells assessed as inhibition of cell growth at 10 uM measured after 24 to 72 hrs by SRB method relative to control

[13] = test system: NCI-H23; test: cells; assay type: functional; conditions: Homo sapiens, time 24-72 hrs
Description: Antiproliferative activity against human NCI-H23 cells assessed as inhibition of cell growth at 10 uM measured after 24 to 72 hrs by SRB method relative to control

[14] = test system: NCI-H322M; test: Antiproliferative activity against human NCI-H322M cells assessed as inhibition of cell growth at 10 uM measured after 24 to 72 hrs by SRB method relative to control; assay type: functional; conditions: time 24-72 hrs
[15] = test system: NCI-H460; test: cells; assay type: functional; conditions: Homo sapiens, time 24-72 hrs
Description: Antiproliferative activity against human NCI-H460 cells assessed as inhibition of cell growth at 10 uM measured after 24 to 72 hrs by SRB method relative to control

[16] = test system: NCI-H522; test: Antiproliferative activity against human NCI-H522 cells assessed as inhibition of cell growth at 10 uM measured after 24 to 72 hrs by SRB method relative to control; assay type: functional; conditions: time 24-72 hrs
[17] = test system: MCF7; test: Antiproliferative activity against human MCF7 cells assessed as inhibition of cell growth at 10 uM measured after 24 to 72 hrs by SRB method relative to control; assay type: functional; conditions: time 24-72 hrs
[18] = test system: MDA-MB-231; test: Antiproliferative activity against human MDA-MB-231 cells assessed as inhibition of cell growth at 10 uM measured after 24 to 72 hrs by SRB method relative to control; assay type: functional; conditions: time 24-72 hrs
[19] = test system: Hs-578T; test: Antiproliferative activity against human Hs-578T cells assessed as inhibition of cell growth at 10 uM measured after 24 to 72 hrs by SRB method relative to control; assay type: functional; conditions: time 24-72 hrs
[20] = test system: BT-549; test: Antiproliferative activity against human BT-549 cells assessed as inhibition of cell growth at 10 uM measured after 24 to 72 hrs by SRB method relative to control; assay type: functional; conditions: time 24-72 hrs
[21] = test system: T47D; test: Antiproliferative activity against human T47D cells assessed as inhibition of cell growth at 10 uM measured after 24 to 72 hrs by SRB method relative to control; assay type: functional; conditions: time 24-72 hrs
[22] = test system: MDA-MB-468; test: Antiproliferative activity against human MDA-MB-468 cells assessed as inhibition of cell growth at 10 uM measured after 24 to 72 hrs by SRB method relative to control; assay type: functional; conditions: time 24-72 hrs
[23] = test system: CCRF-CEM; test: Antiproliferative activity against human CCRF-CEM cells assessed as inhibition of cell growth at 10 uM measured after 24 to 72 hrs by SRB method relative to control; assay type: functional; conditions: time 24-72 hrs
[24] = test system: HL-60; test: Antiproliferative activity against human HL-60 cells assessed as inhibition of cell growth at 10 uM measured after 24 to 72 hrs by SRB method relative to control; assay type: functional; conditions: time 24-72 hrs
[25] = test system: K562; test: Antiproliferative activity against human K562 cells assessed as inhibition of cell growth at 10 uM measured after 24 to 72 hrs by SRB method relative to control; assay type: functional; conditions: time 24-72 hrs
[26] = test system: MOLT-4; test: Antiproliferative activity against human MOLT-4 cells assessed as inhibition of cell growth at 10 uM measured after 24 to 72 hrs by SRB method relative to control; assay type: functional; conditions: time 24-72 hrs
[27] = test system: RPMI-8226; test: Antiproliferative activity against human RPMI-8226 cells assessed as inhibition of cell growth at 10 uM measured after 24 to 72 hrs by SRB method relative to control; assay type: functional; conditions: time 24-72 hrs
[28] = test system: SR; test: Antiproliferative activity against human SR cells assessed as inhibition of cell growth at 10 uM by measured after 24 to 72 hrs SRB method relative to control; assay type: functional; conditions: time 24-72 hrs
[29] = test system: A549; test: Induction of apoptosis in human A549 cells assessed as increase in cleaved caspase-3 expression measured after 48 hrs by Western blot analysis; assay type: functional, cell-based; conditions: dose <= 4.0 µM
[30] = test system: A549; test: Induction of apoptosis in human A549 cells assessed as increase in cleaved caspase-7 expression measured after 48 hrs by Western blot analysis; assay type: functional, cell-based; conditions: dose <= 4.0 µM
[31] = test system: A549; test: Induction of cell cycle arrest in human A549 cells assessed as increase in number of cells in G2/M phase by flow cytometry analysis; assay type: functional, cell-based; conditions: dose 1-4 µM
[32] = test system: A549; test: Induction of cell cycle arrest in human A549 cells assessed as decrease in number of cells in G0/G1 phase at 1 to 4 uM by flow cytometry analysis; assay type: functional, cell-based; conditions: dose 1-4 µM
[33] = test system: A549; test: Induction of cell cycle arrest in human A549 cells assessed as decrease in cyclin A1 expression measured after 24 hrs by Western blot analysis; assay type: functional, cell-based; conditions: dose 1-4 µM
[34] = test system: A549; test: Induction of cell cycle arrest in human A549 cells assessed as decrease in cyclin B1 expression measured after 24 hrs by Western blot analysis; assay type: functional, cell-based; conditions: dose 1-4 µM
[35] = test system: A549; test: Induction of cell cycle arrest in human A549 cells assessed as decrease in cyclin H expression measured after 24 hrs by Western blot analysis; assay type: functional, cell-based; conditions: dose 1-4 µM
[36] = test system: A549; test: Induction of cell cycle arrest in human A549 cells assessed as decrease in Cdc25c expression measured after 24 hrs by Western blot analysis; assay type: functional, cell-based; conditions: dose 1-4 µM
[37] = test system: A549; test: Induction of cell cycle arrest in human A549 cells assessed as increase in p53 expression measured after 24 hrs by Western blot analysis; assay type: functional, cell-based; conditions: dose 1-4 µM
[38] = test system: A549; test: Activation of Hippo signaling pathway in human A549 cells assessed as decrease in YAP incubated for 24 hrs by Western blotting analysis; assay type: cell-based; conditions: filed as activator, dose <= 4.0 µM
[39] = test system: A549; test: Activation of Hippo signaling pathway in human A549 cells assessed as increase in […] at upto 4 uM incubated for 24 hrs by Western blotting analysis; assay type: cell-based; conditions: filed as activator
[40] = test system: A549; test: Activation of Hippo signaling pathway in human A549 cells assessed as increase in p-MOB1/MOB1 ratio at upto 4 uM incubated for 24 hrs by Western blotting analysis; assay type: cell-based; conditions: filed as activator
[41] = test system: A549; test: Inhibition of PI3K/AKT/mTOR signalling pathway in human A549 cells assessed as inhibition of P70S6K phosphorylation measured after 24 hrs by Western blot analysis; assay type: cell-based; conditions: dose <= 4.0 µM
[42] = test system: SF-268; test: Growth inhibition of human SF-268 cells measured after 24 to 72 hrs by SRB method; assay type: functional; conditions: time 24-72 hrs
[43] = test system: SF-295; test: Growth inhibition of human SF-295 cells measured after 24 to 72 hrs by SRB method; assay type: functional; conditions: time 24-72 hrs
[44] = test system: MDA-MB-435; test: Growth inhibition of human MDA-MB-435 cells measured after 24 to 72 hrs by SRB method; assay type: functional; conditions: time 24-72 hrs
[45] = test system: SK-MEL-28; test: Growth inhibition of human SK-MEL-28 cells measured after 24 to 72 hrs by SRB method; assay type: functional; conditions: time 24-72 hrs
[46] = test system: ACHN; test: Growth inhibition of human ACHN cells measured after 24 to 72 hrs by SRB method; assay type: functional; conditions: time 24-72 hrs
[47] = test system: A498; test: Growth inhibition of human A498 cells measured after 24 to 72 hrs by SRB method; assay type: functional; conditions: time 24-72 hrs
[48] = test system: SK-OV-3; test: Growth inhibition of human SK-OV-3 cells measured after 24 to 72 hrs by SRB method; assay type: functional; conditions: pooled result: one value given for 7 cell lines, strains, targets or settings, time 24-72 hrs
[49] = test system: PC-3; test: Growth inhibition of human PC-3 cells measured after 24 to 72 hrs by SRB method; assay type: functional; conditions: time 24-72 hrs
[50] = test system: DU-145; test: Growth inhibition of human DU-145 cells measured after 24 to 72 hrs by SRB method; assay type: functional; conditions: time 24-72 hrs
[51] = test system: PC-3; test: Potency index, ratio of enzalutamide GI50 to test compound GI50 for growth inhibition of human PC-3 cells measured after 24 to 72 hrs by SRB method; assay type: functional; conditions: time 24-72 hrs
[52] = test system: DU-145; test: Potency index, ratio of enzalutamide GI50 to test compound GI50 for growth inhibition of human DU-145 cells measured after 24 to 72 hrs by SRB method; assay type: functional; conditions: time 24-72 hrs

**Q.** What does the source list for `COc1ccc(NC(=O)c2cccc(C3CCc4c(cc(OC)c(OC)c4OC)O3)c2)cc1` (configuration not stated)?
**A.** GI50 [1]: 2400 nM; GI50 [2]: 3470 nM; Activity [3]: Dose-Dependent Effect; Activity [4]: Dose-Dependent Effect; Activity [5]: inactive; Activity [6]: Dose-Dependent Effect; Activity [7]: Dose-Dependent Effect; inhibition at 10 µM [8]: 67.9%; inhibition at 10 µM [9]: 53%; inhibition at 10 µM [10]: 69.3%; inhibition at 10 µM [11]: 102%; inhibition at 10 µM [12]: 52.5%; inhibition at 10 µM [13]: 47.9%; inhibition at 10 µM [14]: 46.1%; inhibition at 10 µM [15]: 81.8%; inhibition at 10 µM [16]: 78.2%; inhibition at 10 µM [17]: > 60%; inhibition at 10 µM [18]: > 60%; inhibition at 10 µM [19]: > 60%; inhibition at 10 µM [20]: > 60%; inhibition at 10 µM [21]: > 60%; inhibition at 10 µM [22]: > 60%; inhibition at 10 µM [23]: > 60%; inhibition at 10 µM [24]: > 60%; inhibition at 10 µM [25]: > 60%; inhibition at 10 µM [26]: > 60%; inhibition at 10 µM [27]: > 60%; inhibition at 10 µM [28]: > 60%; Activity [29]: Dose-Dependent Effect; Activity [30]: Dose-Dependent Effect; Activity [31]: Dose-Dependent Effect; Activity [32]: Active; Activity [33]: Dose-Dependent Effect; Activity [34]: Dose-Dependent Effect; Activity [35]: Dose-Dependent Effect; Activity [36]: Dose-Dependent Effect; Activity [37]: Dose-Dependent Effect; Activity [38]: Dose-Dependent Effect; Activity [39]: Active; Activity [40]: Active; inhibition [41]: Dose-Dependent Effect; GI50 [42]: 5130 nM; GI50 [43]: 2510 nM; GI50 [44]: 520 nM; GI50 [45]: 4070 nM; GI50 [46]: 4270 nM; GI50 [47]: 1380 nM; GI50 [48]: 2820 nM; GI50 [49]: 1580 nM; GI50 [50]: 2950 nM; fold change (FC) [51]: 12; fold change (FC) [52]: 12
